Source: patent publication US20070258972A1, “Combination of a Histone Deacetylase Inhibitor with a Death Receptor Ligand” (priority 2003, published 2007)

System: p21WAF1 promoter DNA
Experiment: ChIP assay, p21WAF1 promoter
Type: cell-based, human
Conditions: Jurkat and SKW 6.4 cells
Description: ChIP analysis was performed by a slight modification of a previously described method. Cells are incubated overnight at a density of 0.25×10^8 cells/ ml at 37° C. with 5% CO2. Next day, cells are cultured with 0, 50, 100 or 250 nM of LAQ 824 for 24 hours. Formaldehyde was then added to the cells to a final concentration of 1%, and the cells are gently shaken at room temperature for 10 minutes. Following this, the cells are pelleted, suspended in 1 mL of ice-cold PBS containing protease inhibitors (Complete, Boehringer Mannheim). Cells are again pelleted, re-suspended in 0.5 mL of SDS lysis buffer (1% SDS/1.0 mM EDTA/50 mM Tris.HCl, pH 8.1) and incubated on ice for 20 minutes. Lysates are sonicated with 15-second bursts. Debris was removed from samples by centrifugation for 20 minutes at 15,000×g at 4° C. An aliquot of the chromatin preparation (100 μL) was set aside and designated as Input Fraction. […] Immunoprecipitated DNA (both immunoprecipitation samples and Input) was recovered by phenol/chloroform extraction and ethanol precipitation and analyzed by PCR. […] The optimal reaction conditions for PCR are determined for each primer pair. […] The ratio between the immunoprecipitated DNA and Input DNA was calculated for each treatment and primer set. The fold increases after treatment with LAQ824 was calculated from the indicated ratio.

O=C(/C=C/c1ccc(CN(CCO)CCc2c[nH]c3ccccc23)cc1)NO [LAQ824, N-hydroxy-3-[4-[[(2-hydroxyethyl)[2-(1H-indol-3-yl)ethyl]-amino]methyl]phenyl]-2E-2-propenamide]
association of p21WAF1 promoter DNA with acetylated histones: increased
